Reference: ChEMBL document CHEMBL1201862, “PubChem BioAssay data set” (2004)
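96-well plates; 48 h exposure; 5 concentrations. Endpoints by linear interpolation between flanking doses. Not reached: highest tested concentration assigned. At the GI50, growth is halved.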 Activity calls are given as the source filed them. Cut-off read from the data, not from the text of the source: active = GI50 up to about 1.1 µM and inactive = higher. Non-standard residues stand in square brackets, D forms with d. Residues, ends and D or L forms follow the SMILES beside them. ξ: configuration not given here. *: point of attachment. dThr(3ξ) = CC(O)[C@@H](N)C(=O)O; dNMeL = CN[C@H](CC(C)C)C(=O)O; OBn = c1ccc(CO*)cc1; ξLac = CC(O)C(=O)O

Columns and labels:
Experiment in all cases: NCI tumour cell line growth inhibition, 48 h
RPMI-8226 = system: RPMI-8226
SK-MEL-5 = system: SK-MEL-5
OVCAR-8 = system: OVCAR-8
COLO 205 = system: COLO 205
A549 = system: A549
SR = system: SR
SK-MEL-2 = system: SK-MEL-2
CCRF-CEM = system: CCRF-CEM
M14 = system: M14
A498 = system: A498
MOLT-4 = system: MOLT-4
SF-268 = system: SF-268
SW-620 = system: SW-620
UACC-257 = system: UACC-257
LOX IMVI = system: LOX IMVI
HL-60 = system: HL-60
MDA-N = system: MDA-N
SN12C = system: SN12C
BT-549 = system: BT-549
NCI-H226 = system: NCI-H226

Measured: GI50

CCCCC(=O)Nc1ccc2cc(C(=O)OC)c(Cl)nc2n1
inactive: RPMI-8226 9.75 µM | SK-MEL-5 > 90.8 µM | OVCAR-8 > 100 µM | COLO 205 12.8 µM | A549 > 100 µM | SR > 100 µM | SK-MEL-2 > 100 µM | CCRF-CEM > 100 µM | M14 > 100 µM | A498 37.1 µM | MOLT-4 > 100 µM | SF-268 > 100 µM | SW-620 > 100 µM | UACC-257 43.7 µM | LOX IMVI > 100 µM | HL-60 2.58 µM | MDA-N > 100 µM | SN12C 50 µM | BT-549 > 100 µM | NCI-H226 > 100 µM

CC(=O)OC(C)[C@@H](NC(=O)[C@@H](CC(C)C)N(C)C(=O)[C@@H]1CCCN1C(=O)C(C)O)C(=O)OCc1ccccc1 (stereo not given in full) (H-[ξLac]P[dNMeL][dThr(3ξ)](Ac)-OBn)
inactive: RPMI-8226 > 100 µM | SK-MEL-5 > 100 µM | OVCAR-8 > 100 µM | COLO 205 > 100 µM | A549 > 100 µM | SR > 100 µM | SK-MEL-2 > 100 µM | CCRF-CEM > 100 µM | M14 > 100 µM | A498 > 100 µM | MOLT-4 > 100 µM | SF-268 > 100 µM | SW-620 > 100 µM | UACC-257 > 100 µM | LOX IMVI > 100 µM | HL-60 > 100 µM | MDA-N > 100 µM | SN12C > 100 µM | BT-549 > 100 µM | NCI-H226 > 100 µM

COc1cc2[nH]c(=O)c3cc(-c4ccccc4)cc4c(Cl)nc(c1OC)c2c43
inactive: RPMI-8226 13.2 µM | SK-MEL-5 12.5 µM | OVCAR-8 5.14 µM | COLO 205 11.6 µM | A549 23.2 µM | SR 9.89 µM | SK-MEL-2 15.1 µM | CCRF-CEM 4.88 µM | M14 19.4 µM | A498 > 100 µM | MOLT-4 4.63 µM | SF-268 16.1 µM | SW-620 3.37 µM | UACC-257 4.69 µM | LOX IMVI 6.78 µM | HL-60 2.17 µM | MDA-N 3.86 µM | SN12C 11.7 µM | BT-549 43.2 µM | NCI-H226 > 70.1 µM
